# Like-named read-outs stand apart in the source and are kept apart here. Marks after values point to notes of the source that are not given here.
# Experiments:
# S. aureus [1] = experiment: MIC by broth macrodilution in glass tubes; format: cell-based
# Method: In this experiment, MICs were determined by broth macrodilution in 1 ml final volumes in glass tubes. Otherwise, the methodology was as described above.
# [2] = tested on: Giorgio strain of S. aureus; details: mice, cited from earlier work
# [3] = intraperitoneal infection, cited from earlier work
# S. aureus [4] = experiment: MIC by broth microdilution with 0.1% BSA in the diluent; format: cell-based
# Method: Lysostaphin sticks to plastic materials and can be lost from solution; this can affect its apparent activity. Therefore, some MIC determinations were also performed with additions of 0.1% bovine serum album (BSA) to the diluent. Otherwise, the method was identical to that cited above. […] Since this observation is related to the affinity of lysostaphin for plastic materials, it is to be expected that, in general, staphylococcal strains are more susceptible to lysostaphin than was observed previously.
# S. aureus [5] = experiment: MBC by standard broth microdilution (kills 99.9% of inoculum in 24 h); format: cell-based
# Text: (§1) Approved Standard M7-A3. Methods for dilution antimicrobial susceptibility tests for bacteria that grow aerobically—Third edition. National Committee for Clinical Laboratory Standards, Villanova, Pa.; National Committee for Clinical Laboratory Standards, 1992. Tentative Guideline M26-T. Methods for determining bactericidal activity of antimicrobial agents. National Committee for Clinical Laboratory Standards, Villanova, Pa.].
# MRSA 27619 = experiment: Experimental aortic valve endocarditis in rabbits, MRSA 27619; format: in vivo, S. aureus; details: for Mean log10CFU/gram of vegetation / Number of sterile vegetations/total animals treated: three days
# Method: Aortic valve endocarditis was established in New Zealand white rabbits weighing approximately 3 kg. Rabbits were anesthetized and the right carotid artery surgically exposed and cannulated with a polyethylene catheter which was advanced into the left ventricle of the heart. After at least 24 h, the rabbits were infected intravenously with 10^6-10^7 cells of a methicillin-resistant S. aureus strain (MRSA 27619). Twenty-four hours later, the animals were randomly assigned to different treatment groups; untreated control (9 rabbits); positive control, vancomycin 30 mg/kg twice daily (15); lysostaphin 5 mg/kg three times daily (11); lysostaphin 5 mg/kg once daily (10); lysostaphin 5 mg/kg once daily+vancomycin 30 mg/kg twice daily (11).
# All treatments were intravenous and were carried out for three days. The state of health of the rabbits was assessed at intervals. The rabbits were sacrificed 18 h after the last treatment. Aortic vegetations were removed and weighed and processed to determine the number of viable bacteria, expressed as log,10CFU/gram. The limit of detection is 10^2 CFU/gram (log10CFU/gram=2.0). The mean titers of bacteria per gram were compared by one-way analysis of variance. The Student-Newman-Keuls test was used to adjust for multiple comparisons.
# Comparison of the rates of sterilization were made using Fisher's exact test. Statistical significance was defined as a P value of ≦0.05.
# Kidney abscesses were also assessed for the presence of staphylococci.
# S. aureus Smith = experiment: Acute S. aureus infection model in mice (survival); format: in vivo
# Method: The efficacy of lysostaphin was compared to that of vancomycin in an acute infection model in mice. S. aureus Smith was cultured overnight, with moderate agitation, in Veal Infusion broth (Difco) and diluted in broth containing 5% hog gastric mucin (Difco). Male Swiss-Webster mice (Taconic Farms, Germantown, N.Y.) weighing approximately 20 grams were infected intraperitoneally with 10^5-10^6 viable cells, approximately tenfold the inoculum that reproducibly killed all untreated animals within 48 h. There were six mice in each treatment group. Lysostaphin was administered intravenously (in 0.1 ml 5% dextrose for injection) or subcutaneously (in 0.2 ml), within 10 min of infection. Vancomycin was administered subcutaneously.
# S. aureus [6] = experiment: MIC by standard broth microdilution; format: cell-based
# Text: as §1
# [7] = strain 404 (clinical isolate, methicillin-resistant)
# [8] = strain 27287 (clinical isolate, methicillin-resistant)
# [9] = strain 27295 (clinical isolate, methicillin-resistant)
# [10] = strain 27619 (clinical isolate, methicillin-resistant)
# [11] = clinical isolates of S. aureus (summary of Table 1a)
# [12] = strain 450M (clinical isolate, methicillin-resistant)
# [13] = strain 1573 (clinical isolate, methicillin-resistant)
# [14] = strain 27222 (clinical isolate, methicillin-resistant)
# [15] = strain 27286 (clinical isolate, methicillin-resistant)
# [16] = strain 27619VR (laboratory-derived, intermediate susceptibility to vancomycin)
# [17] = strain 27621 (clinical isolate, methicillin-resistant)
# [18] = strain 27622 (clinical isolate, methicillin-resistant)
# [19] = strain 27698 (clinical isolate, methicillin-resistant)
# [20] = strain 29293 (clinical isolate, methicillin-resistant)
# [21] = strain COL (clinical isolate, methicillin-resistant)
# [22] = strain HP5827 (clinical isolate, methicillin-resistant, VISA)
# [23] = strain HP5836 (clinical isolate, methicillin-resistant, VISA)
# [24] = lysostaphin intravenously vs vancomycin
substance,measurement,setting,value
lysostaphin: recombinant lysostaphin enzyme from fermentation of B. sphaericus; majority component lacks the two N-terminal amino acids of the published sequence,MIC,S. aureus [1]; strain AG402 (clinical isolate),.008 µg/mL
same,MIC,"S. aureus [1]; strain AG404 (clinical isolate, methicillin-resistant)",.008 µg/mL
same,MIC,S. aureus [1]; strain AG414,.004 µg/mL
same,MIC,S. aureus [1]; strain AG417,.004 µg/mL
same,numbers of bacteria in the kidneys,"[2]; intravenously within 6 hours after infection, dosages of 1.5 mg/kg or higher",significant reductions
same,numbers of bacteria in the kidneys,"[2]; treatment withheld for 24 hours or longer, dosages of 125 or 250 mg/kg",only modest reductions
same,survival of treated mice,"[3]; single or multiple subcutaneous administrations, total approximately 1 mg/kg",50%
same,mice protected,[3]; total dosage of 6 mg/kg,100%
same,MIC With BSA,S. aureus [4]; strain 401 (clinical isolate),0.015 µg/mL
same,MIC With BSA,S. aureus [4]; [7],0.008 µg/mL
same,MIC With BSA,S. aureus [4]; strain 414,0.03 µg/mL
same,MIC With BSA,S. aureus [4]; strain 417,0.03 µg/mL
same,MIC With BSA,"S. aureus [4]; strain 25756 (clinical isolate, methicillin-resistant)",0.008 µg/mL
same,MIC With BSA,S. aureus [4]; [8],0.03 µg/mL
same,MIC With BSA,S. aureus [4]; [9],≦0.004 μg/ml
same,MIC With BSA,S. aureus [4]; [10],0.008 µg/mL
same,minimal bactericidal concentrations (MBC),S. aureus [5]; [11],≤ 1.0 µg/mL
same,MBC,S. aureus [5]; strain 402 (clinical isolate),0.5 µg/mL
same,MBC,S. aureus [5]; [7],0.5 µg/mL
same,MBC,S. aureus [5]; strain 412,0.25 µg/mL
same,MBC,S. aureus [5]; strain 414,0.25 µg/mL
same,MBC,S. aureus [5]; [12],0.5 µg/mL
same,MBC,S. aureus [5]; [13],1 µg/mL
same,MBC,S. aureus [5]; [14],0.25 µg/mL
same,MBC,S. aureus [5]; [15],0.5 µg/mL
same,MBC,S. aureus [5]; [8],0.25 µg/mL
same,MBC,S. aureus [5]; [9],0.25 µg/mL
same,MBC,S. aureus [5]; [10],0.5 µg/mL
same,MBC,S. aureus [5]; [16],0.5 µg/mL
same,MBC,S. aureus [5]; [17],0.25 µg/mL
same,MBC,S. aureus [5]; [18],0.25 µg/mL
same,MBC,S. aureus [5]; [19],0.5 µg/mL
same,MBC,S. aureus [5]; [20],0.25 µg/mL
same,MBC,S. aureus [5]; [21],0.25 µg/mL
same,MBC,S. aureus [5]; [22],0.5 µg/mL
same,MBC,S. aureus [5]; [23],1 µg/mL
same,Mean log10CFU/gram of vegetation,MRSA 27619; 5 mg/kg once daily iv,7.08 log10CFU/gram
same,Number of sterile vegetations/total animals treated,MRSA 27619; 5 mg/kg once daily iv,2/10
same,Mean log10CFU/gram of vegetation,MRSA 27619; 5 mg/kg three times daily iv,2.26 log10CFU/gram
same,Number of sterile vegetations/total animals treated,MRSA 27619; 5 mg/kg three times daily iv,10/11^c
same,bacterial load in kidney abscesses,"MRSA 27619; thrice-daily regimen (5 mg/kg), controls just under 10^8 CFU/gram",~10^2 CFU/gram of tissue
same,state of health of the rabbits,"MRSA 27619; thrice-daily regimen, early in the treatment cycle",all in good health
same,% survival,S. aureus Smith; 0.08 mg/kg iv within 10 min of infection,33%
same,% survival,S. aureus Smith; 0.16 mg/kg iv within 10 min of infection,100%
same,% survival,S. aureus Smith; 0.31 mg/kg iv within 10 min of infection,100%
same,% survival,S. aureus Smith; 0.63 mg/kg iv within 10 min of infection,100%
same,% survival,S. aureus Smith; 1.25 mg/kg sc,67%
same,% survival,S. aureus Smith; 2.5 mg/kg sc,100%
same,% survival,S. aureus Smith; 5 mg/kg sc,100%
same,% survival,S. aureus Smith; 10 mg/kg sc,100%
same,% survival,S. aureus Smith; 20 mg/kg sc,100%
same,% survival,"S. aureus Smith; Table 4 experiment, dose 0.04 mg/kg",0%
same,% survival,"S. aureus Smith; Table 4 experiment, dose 0.08 mg/kg",17%
same,% survival,"S. aureus Smith; Table 4 experiment, dose 0.16 mg/kg",83%
same,"effectiveness relative to vancomycin, on a molar basis",S. aureus Smith; [24],about 200 times
same,"effectiveness relative to vancomycin, on a weight basis",S. aureus Smith; [24],16 times
same,minimal inhibitory concentrations (MIC),S. aureus [6]; [11],≤ 1.0 µg/mL
same,MIC Without BSA,S. aureus [6]; strain 401 (clinical isolate),0.5 µg/mL
same,MIC,S. aureus [6]; strain 402 (clinical isolate),0.5 µg/mL
same,MIC,S. aureus [6]; [7],0.5 µg/mL
same,MIC Without BSA,S. aureus [6]; [7],0.5 µg/mL
same,MIC,S. aureus [6]; strain 412,0.25 µg/mL
same,MIC,S. aureus [6]; strain 414,0.25 µg/mL
same,MIC Without BSA,S. aureus [6]; strain 414,0.25 µg/mL
same,MIC,S. aureus [6]; [12],0.25 µg/mL
same,MIC,S. aureus [6]; [13],0.5 µg/mL
same,MIC,S. aureus [6]; [14],0.25 µg/mL
same,MIC,S. aureus [6]; [15],0.25 µg/mL
same,MIC,S. aureus [6]; [8],0.25 µg/mL
same,MIC Without BSA,S. aureus [6]; [8],0.25 µg/mL
same,MIC,S. aureus [6]; [9],0.13 µg/mL
same,MIC Without BSA,S. aureus [6]; [9],0.13 µg/mL
same,MIC,S. aureus [6]; [10],0.25 µg/mL
same,MIC Without BSA,S. aureus [6]; [10],0.25 µg/mL
same,MIC,S. aureus [6]; [16],0.5 µg/mL
same,MIC,S. aureus [6]; [17],0.06 µg/mL
same,MIC,S. aureus [6]; [18],0.06 µg/mL
same,MIC,S. aureus [6]; [19],0.25 µg/mL
same,MIC,S. aureus [6]; [20],0.06 µg/mL
same,MIC,S. aureus [6]; [21],0.13 µg/mL
same,MIC,S. aureus [6]; [22],0.5 µg/mL
same,MIC,S. aureus [6]; [23],0.5 µg/mL
